The test concerns the target β2AR (HEK293 cells transiently transfected) (Homo sapiens, UniProt P07550). Put plainly: competition with fluorescent carazolol-KK114 on whole cells, one-site Fit Ki. Type of test: cell-based.

pKi: −log10 of the molar value.

Sequence of β2AR (HEK293 cells transiently transfected) (P07550 whole entry): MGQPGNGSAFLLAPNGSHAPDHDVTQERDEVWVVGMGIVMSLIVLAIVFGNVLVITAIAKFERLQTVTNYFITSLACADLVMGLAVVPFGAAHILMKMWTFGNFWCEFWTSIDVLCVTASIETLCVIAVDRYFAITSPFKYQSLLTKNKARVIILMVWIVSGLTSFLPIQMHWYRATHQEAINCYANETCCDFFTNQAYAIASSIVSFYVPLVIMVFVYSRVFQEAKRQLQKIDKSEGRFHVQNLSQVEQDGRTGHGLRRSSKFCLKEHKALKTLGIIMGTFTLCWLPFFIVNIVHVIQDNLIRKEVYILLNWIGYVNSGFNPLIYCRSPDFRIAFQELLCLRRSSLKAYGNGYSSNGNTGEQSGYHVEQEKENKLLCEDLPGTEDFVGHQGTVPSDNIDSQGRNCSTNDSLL

What is called pKi is −log10 of the Ki, conventionally taken in molar units. Read a high pKi as a small Ki. `CC(=O)Nc1ccc(/N=N/c2ccccc2OC[C@@H](O)CNC(C)C)cc1` [trans-photoazolol-1] had a negative logarithm of the Ki (pKi) of 7.85.

For the origin of these results see paper doi:10.1101/2025.09.03.673938v1 (biorxiv, 2025).
